Data: patent US5126057A, “Disinfecting with N,N'-dihaloimidazolidin-4-ones” (Auburn Research Foundation, priority 1991, dated 1992)
Like-named read-outs stand apart in the source and are kept apart here. Blank lines part the entries; values can stand above or below the molecule they belong to.

How the values were obtained:
[1] = Formation of N-halogenated imidazolidin-4-ones in situ (loss of free chlorine, DPD/FAS); format: physicochemical; conditions: for reaction with free chlorine: pH 7.0, 24°±1° C.
Description: An aqueous solution containing 50.0 milligrams (3.52×10^-4 moles) of 2,2,5,5-tetramethylimidazolidin-4-one synthesized as in example 2 in 50.0 milliliters of 0.05 molar sodium phosphate buffer (pH 7.0) was prepared. The buffer solution had been made halogen demand-free by chlorination with 3 milligrams per liter total chlorine from sodium hypochlorite followed by exposure to direct sunlight for two days until no titratable chlorine remained. A halogen demand-free solution of free chlorine buffered to pH 7.0 was prepared by bubbling chlorine gas into a flask containing the demand-free buffered water. Then 19 milliliters of the solution containing 1.31 grams per liter of free chlorine (7.02×10^-4 moles of positive halogen) was added to the solution containing the 2,2,5,5-tetramethylimidazolidin-4-one at ambient temperature (24°±1° C.) while stirring.
The reaction rate for formation of 1,3-dichloro-2,2,5,5-tetramethylimidazolidin-4-one and/or 1-chloro-2,2,5,5-tetramethylimidazolidin-4-one in situ was then followed kinetically by observing the loss of free chlorine concentration from the reaction mixture as a function of time. The concentration of free chlorine was monitored by withdrawing aliquots from the mixture periodically and titrating them by the DPD/FAS (N,N-diethyl-p-phenylenediamine/ferrous ammonium sulfate) method as described in "Standard Methods for the Examination of Water and Wastewater, 16th edition, American Public Health Association, Washington, D. C., 1985, pp. 306-309. The moles of free chlorine present in the reaction mixture declined from 7.02×10^-4 at the time of mixing to 4.45×10^-5 after only 48 seconds representing 94% reaction. Then further declination of free chlorine occurred to 3.63×10^-5 moles after 2.87 minutes, 3.48×10^-5 moles after 6.07 minutes, and 3.32×10^-5 moles after 114.6 minutes. Thus after 114.6 minutes 95% of the reaction had occurred. At this time 1.76×10^-5 additional moles of 2,2,5,5-tetramethylimidazolidin-4-one was added, and the concentration of free chlorine declined to zero by 140 minutes total elapsed time.

[2] = cited from earlier work
[3] = Stability of unhalogenated 2,2,5,5-tetramethylimidazolidin-4-one in water exposed to direct sunlight; format: physicochemical
Description: A solution containing 142 milligrams (1.00×10^-3 moles) of 2,2,5,5-tetramethylimidazolidin-4-one (Compound 6) in 1.0 liter of demand-free water buffered to pH 7.0 was prepared. 100 milliliter samples (1.00×10^-4 moles of Compound 6) of this solution were placed in each of five 100 milliliter volumetric flasks. The flasks were sealed with ground glass stoppers and placed in direct sunlight on the roof of the chemistry building at Auburn University during the period Jul. 6, 1989 to Aug. 2, 1989. No effort was made to control the temperature in this experiment; it was typically 33° C. during this period. […]
After allowing the reaction of Compound 6 with free chlorine to form a mixture of 1,3-dichloro-2,2,5,5-tetramethylimidazolidin-4-one (Compound 1) and 1-chloro-2,2,5,5-tetramethylimidazolidin-4-one (Compound 3) to proceed with stirring over a period of 1 hour, aliquots were analyzed for total and free chlorine using the DPD-FAS procedure mentioned in example 8. The combined chlorine concentration was assumed to be the difference between the determined total and free chlorine concentrations, and to represent the amounts of compounds 1 and 3 forming during the reaction.

reaction with free chlorine ([1]; 48 seconds): 94%
reaction with free chlorine ([1]; 114.6 minutes): 95%
time for in situ formation of halogenated imidazolidin-4-ones ([1]; free chlorine added to pH 7.0 demand-free water): less than 1 minute
SMILES: CC1(C)NC(=O)C(C)(C)N1 [2,2,5,5-tetramethylimidazolidin-4-one]

SMILES: CC1(C)COC(=O)N1Cl [3-chloro-4,4-dimethyl-2-oxazolidinone]
hydrolysis equilibrium constant ([2]; reported by Williams, Elder and Worley, 1988): 2.3×10^-9

variation of combined chlorine concentration ([3]; 4 weeks direct sunlight, DFW pH 7.0, typically 33° C., then reacted with free chlorine): ≤ 6%
time for which stable in direct sunlight ([3]; DFW, pH 7.0, direct sunlight): at least 4 weeks
SMILES: CC1(C)NC(=O)C(C)(C)N1 [Compound 6, 2,2,5,5-tetramethylimidazolidin-4-one]

SMILES: O=c1n(Cl)c(=O)n(Cl)c(=O)n1Cl [trichloroisocyanuric acid]
hydrolysis equilibrium constant ([2]; reported by G. D. Nelson, Kirk-Othmer 1979): 1.6×10^-4
